Test results as given in patent US20070274946A1, “Tolerance to Graft Prior to Thymic Reactivation” (Norwood Immunoloty, Ltd., priority 1999, published 2007).

Key:
[1] = Chemical castration versus surgical castration after cyclophosphamide T cell depletion; type: in vivo, mice
From the text: FIG. 9: Changes in thymus (open bars), spleen (gray bars) and lymph node (black bars) cell numbers following treatment with cyclophosphamide, a chemotherapy agent, and surgical or chemical castration performed on the same day. Note the rapid expansion of the thymus in castrated animals when compared to the non-castrate (cyclophosphamide alone) group at 1 and 2 weeks post-treatment. In addition, spleen and lymph node numbers of the castrate group were well increased compared to the cyclophosphamide alone group. (n=3-4 per treatment group and time point).
Old mice (e.g., 2 years old) were injected with cyclophosphamide (200 mg/kg body wt over two days) and castrated.
FIG. 9 illustrates the use of chemical castration compared to surgical castration in enhancement of T cell regeneration. […] The enhancing effects were equivalent on thymic expansion and also the recovery of spleen and lymph node. The kinetics of chemical castration are slower than surgical, that is, mice take about 3 weeks longer to decrease their circulating sex steroid levels. However, chemical castration is still as effective as surgical castration and can be considered to have an equivalent effect.

[2] = Chemical castration of aged female Balb/cJ mice, radioimmunoassay of plasma sex steroids; type: in vivo; conditions: 10 mg/kg s.c., 1 month slow release formulation
Procedure: To do this, aged (i.e., 2 year old) female Balb/cJ (H-2d) mice are either surgically castrated (e.g., by removing the ovaries according to standard methods), or are chemically castrated. For chemical castration, mice are injected subcutaneously with 10 mg/kg Lupron (a GnRH agonist) as a 1 month slow release formulation. Alternatively mice are injected with a GnRH antagonist (e.g., Cetrorelix or Abarelix). Confirmation of loss of sex steroids is performed by standard radioimmunoassay of plasma samples following manufacturer's instructions, and may be monitored throughout the procedure.

[3] = Sex steroid ablation therapy of the patient with an LHRH agonist (Example 6); type: in vivo, human; conditions: single dose effective for 3 months
Procedure: The patient was given sex steroid ablation therapy in the form of delivery of an LHRH agonist. This was given in the form of either Leucrin (depot injection; 22.5 mg) or Zoladex® (implant; 10.8 mg), either one as a single dose effective for 3 months. […] In some cases it is also necessary to deliver a suppresser of adrenal gland production of sex steroids. Cosudex® (5 mg/day or 50 mg/day) may also be given as one tablet per day for the duration of the sex steroid ablation therapy. Alternatively, the patient is given a GnRH antagonist, e.g., Cetrorelix or Abarelix as a subcutaneous injection

[4] = chronic administration; cited from earlier work
[5] = IL-7 administration with or without castration after allogeneic HSCT, thymic cellularity; type: in vivo, mice
From the text: Male C57BL/6J (B6, H-2b), C3FeB6F1/J([B6 3 C3H]F1; H-2b/k), B10.BR (H-2k), B6D2F1/J (H-2b/d), CBA/J (H-2k), Balb/c (H2-d), IL7−/− and KGF−/− mice were obtained from the Jackson Laboratory (Bar Harbor, Maine) and used in experiments when they were between 8 and 12 weeks of age. KGF−/− and IL7−/− were used between 4 and 7 months of age. HSCT protocols were approved by the Memorial Sloan-Kettering Cancer Center Institutional Animal Care and Use Committee. The BM cells were removed aseptically from femurs and tibias. Donor BM was depleted of T cells by incubation with anti-Thy-1.2 for 30 minutes at 4° C. followed by incubation with Low-TOX-M rabbit complement (Cedarlane Laboratories, Hornby, ON, Canada) for 1 hour at 37° C. Splenic T cells (for GVHD analysis) were obtained by purification over a nylon wool column followed by red cell removal with ammonium chloride red cell lysis buffer. Cells (5×10^6 BM cells with or without splenic T cells and leukemia cells) were resuspended in Dulbecco modified essential medium (Life Technologies, Grand Island, N.Y.) and transplanted by tail vein infusion (0.25 mL total volume) into lethally irradiated recipients on day 0. Prior to transplantation, on day 0, recipients received 1300 cGy total body irradiation (^137Cs source) as split dose with 3 hours between doses (to reduce gastrointestinal toxicity). Mice were housed in sterilized microisolator cages and received normal chow and autoclaved hyperchlorinated drinking water (pH 3.0).
IL-7 were either given from days 0 to 13 or 21 to 27 intraperitoneally at 10 μg/day for immune reconstitution studies. PBS was injected into control mice at the same time points.
BM cells, splenocytes or thymocytes were washed in FACS buffer (phosphate buffered saline (PBS)/2% bovine serum albumin (BSA)/0.1% azide) and 1-3×10^6 cells were incubated for 30 minutes at 4° C. with CD16/CD32 FcR block. Cells were then incubated for 30 minutes at 4° C. with primary antibodies and washed twice with FACS buffer. Where necessary, cells were incubated with conjugated Streptavidin for a further 30 minutes at 4° C. The stained cells were resuspended in FACS buffer and analyzed on a FACSCalibur™ flow cytometer (Becton Dickinson, San Jose, Calif.) with CellQuest™ software.

[6] = system: IL-7-dependent murine pre-B cell line 2E8; assay: Thymidine incorporation proliferation assay with IL-7-dependent cell line; type: cell-based; conditions: 2E8 cells
Procedure: Tissue culture medium consisted of RPMI 1640 supplemented with 10% heat inactivated fetal calf serum, 100 U/mL penicillin, […] streptomycin, and 2 mM L-glutamine (as well as […] 2-mercaptoethanol for the culture of 32Dp210 cells and proliferation assays).

CCNC(=O)[C@@H]1CCCN1C(=O)[C@H](CCCN=C(N)N)NC(=O)[C@H](CC(C)C)NC(=O)[C@@H](Cc1c[nH]c2ccccc12)NC(=O)[C@H](Cc1ccc(O)cc1)NC(=O)[C@H](CO)NC(=O)[C@H](Cc1c[nH]c2ccccc12)NC(=O)[C@H](Cc1cnc[nH]1)NC(=O)[C@@H]1CCC(=O)N1 [Deslorelin]
additional time to decrease circulating sex steroid levels versus surgical castration ([1]; chemical castration): about 3 weeks | rate of regeneration post-cyclophosphamide treatment compared to surgical castration ([1]; injected for four weeks, T cell regeneration): comparable rate of regeneration | enhancing effects on thymic expansion and recovery of spleen and lymph node versus surgical castration ([1]; post-cyclophosphamide): equivalent

CCNC(=O)[C@@H]1CCCN1C(=O)[C@H](CCCNC(=N)N)NC(=O)[C@H](CC(C)C)NC(=O)[C@@H](CC(C)C)NC(=O)[C@H](Cc1ccc(O)cc1)NC(=O)[C@H](CO)NC(=O)[C@H](Cc1c[nH]c2ccccc12)NC(=O)[C@H](Cc1c[nH]cn1)NC(=O)[C@@H]1CCC(=O)N1 [Lupron, leuprolide acetate]
time post injection to castrate levels (<0.5 ng estrogen/ml) [2]: 3-4 weeks

CC(C)C[C@H](NC(=O)[C@@H](COC(C)(C)C)NC(=O)[C@H](Cc1ccc(O)cc1)NC(=O)[C@H](CO)NC(=O)[C@H](Cc1c[nH]c2ccccc12)NC(=O)[C@H](Cc1cnc[nH]1)NC(=O)[C@@H]1CCC(=O)N1)C(=O)N[C@@H](CCCNC(=N)N)C(=O)N1CCC[C@H]1C(=O)NNC(N)=O [Zoladex, goserelin acetate]
reduction of sex steroid levels [3]: effective in reducing sex steroid levels sufficiently to reactivate the thymus | serum testosterone levels in males [4]: a range normally seen in surgically castrated men | time to sustained suppression of pituitary LH after initiation of therapy [4]: approximately three

IL-7: Recombinant human IL-7 provided by Cytheris
thymic cellularity, combined treatment (castration and IL-7) ([5]; day 14 after allo-HSCT): significantly more cells | thymic cellularity, IL-7 treated sham-castrated versus PBS treated sham-castrated ([5]; day 14 after allo-HSCT, 10 ug/day i.p. days 0-13): no difference | effect of IL-7 treatment combined with castration on thymic cellularity ([5]; day 28 after allo-HSCT): additive effect | thymic cellularity, IL-7 alone group versus control group ([5]; day 28 after allo-HSCT): significantly higher | proliferative effect on murine cells [6]: equal to murine IL-7
